Results on 35 molecules are retold here after ChEMBL document CHEMBL4138197, “Design, synthesis and pharmacological evaluation of N-(5-chloro-2,4-dihydroxybenzoyl)-(R)-N-arylmethyl-1,2,3,4-tetrahydro-3-isoquinolinecarboxamides as potent Hsp90 inhibitors” (Eur J Med Chem, 2018).

One assay has as its system MDA-MB-231. Put plainly: Antiproliferative activity against human MDA-MB-231 cells after 72 hrs by SRB assay. It counts as functional, cell-based. Conditions: MDA-MB-231, 72 h.
A further assay has as its system A549. Put plainly: Antiproliferative activity against human A549 cells after 72 hrs by SRB assay. It counts as functional, cell-based. The note with it: A549, 72 h.

pIC50: −log10 of the molar value.

As for `O=C(NCc1cccc(Cl)c1)[C@H]1Cc2ccccc2CN1C(=O)c1cc(Cl)c(O)cc1O`, the results for the pIC50 with MDA-MB-231 and in the assay on A549 were 5.71 and 5.74, respectively.
Taken in the same sequence, the figures for `Cc1ccccc1CNC(=O)[C@H]1Cc2ccccc2CN1C(=O)c1cc(Cl)c(O)cc1O` were 5.84 and 6.19.
Take `CS(=O)(=O)c1ccc(CNC(=O)[C@H]2Cc3ccccc3CN2C(=O)c2cc(Cl)c(O)cc2O)cc1`: the pIC50 is 6.02 in the assay with MDA-MB-231 and 5.58 in the assay on A549.
For the molecule `O=C(NCc1ccco1)[C@H]1Cc2ccccc2CN1C(=O)c1cc(Cl)c(O)cc1O`, the figures for the pIC50 in the assay on MDA-MB-231 and in the assay with A549 were 6.30 and 6.05, respectively.
With `COc1ccc(CNC(=O)[C@H]2Cc3ccccc3CN2C(=O)c2cc(Cl)c(O)cc2O)c(OC)c1`, the pIC50 is 5.94 in the assay on MDA-MB-231 and 5.85 in the assay with A549.
With `COc1cccc(CNC(=O)[C@H]2Cc3ccccc3CN2C(=O)c2cc(Cl)c(O)cc2O)c1`, the negative-log IC50 (pIC50) with MDA-MB-231 is 5.74; with A549, 5.81.
Regarding `COc1ccccc1CNC(=O)[C@H]1Cc2ccccc2CN1C(=O)c1cc(Cl)c(O)cc1O`, the figures for the pIC50 in the assay with MDA-MB-231 and with A549 were 6.02 and 5.94, respectively.
On to `O=C(NCc1ccccn1)[C@H]1Cc2ccccc2CN1C(=O)c1cc(Cl)c(O)cc1O`, for which the pIC50 with MDA-MB-231 was 6.20; with A549, 6.05.
As to `N#Cc1ccc(CNC(=O)[C@H]2Cc3ccccc3CN2C(=O)c2cc(Cl)c(O)cc2O)cn1`, the results for the pIC50 with MDA-MB-231 and with A549 were 5.68 and 5.56, respectively.
As to `N#Cc1ccc(CNC(=O)[C@H]2Cc3ccccc3CN2C(=O)c2cc(Cl)c(O)cc2O)nc1`, the pIC50 is 6.28 in the assay on MDA-MB-231 and 6.21 in the assay with A549.
Take `COc1cc(CNC(=O)[C@H]2Cc3ccccc3CN2C(=O)c2cc(Cl)c(O)cc2O)cc(OC)c1OC`: the pIC50 was 5.66 in the assay on MDA-MB-231 and 5.58 in the assay on A549.
For the molecule `O=C(NCc1ccc(Cl)cc1)[C@H]1Cc2ccccc2CN1C(=O)c1cc(Cl)c(O)cc1O`, the pIC50 in the assay on MDA-MB-231 is 6.11; with A549, 6.12.
Regarding `O=C(NCc1cccc([N+](=O)[O-])c1)[C@H]1Cc2ccccc2CN1C(=O)c1cc(Cl)c(O)cc1O`, the negative logarithm of the IC50 (pIC50) is 6.10 in the assay with MDA-MB-231 and 6.19 with A549.
Taken in the same sequence, the figures for `COc1cc(CNC(=O)[C@H]2Cc3ccccc3CN2C(=O)c2cc(Cl)c(O)cc2O)ccc1O` were 5.67 and 5.58.
Take `O=C(NCc1cccnc1)[C@H]1Cc2ccccc2CN1C(=O)c1cc(Cl)c(O)cc1O`: the pIC50 in the assay with MDA-MB-231 is 6.09; with A549, 5.82.
Take `O=C(NCc1ccc2c(c1)CCO2)[C@H]1Cc2ccccc2CN1C(=O)c1cc(Cl)c(O)cc1O`: the negative logarithm of the IC50 (pIC50) in the assay on MDA-MB-231 is 6.05; in the assay on A549, 5.97.
As to `COc1ccc(CNC(=O)[C@H]2Cc3ccccc3CN2C(=O)c2cc(Cl)c(O)cc2O)cc1OC`, the results for the pIC50 in the assay on MDA-MB-231 and in the assay on A549 were 5.78 and 5.77, respectively.
As to `O=C(NCc1ccc(Cl)c(Cl)c1)[C@H]1Cc2ccccc2CN1C(=O)c1cc(Cl)c(O)cc1O`, the pIC50 in the assay with MDA-MB-231 was 5.79; in the assay on A549 it was 5.84.
In the case of `COC1=C2C[C@@H](C)C[C@H](OC)[C@H](O)[C@@H](C)/C=C(\C)[C@H](OC(N)=O)[C@@H](OC)/C=C\C=C(/C)C(=O)NC(=CC1=O)C2=O` [GELDANAMYCIN], the figures for the pIC50 in the assay on MDA-MB-231 and in the assay with A549 were 7.22 and 7.00, respectively.
As for `Cc1cccc(CNC(=O)[C@H]2Cc3ccccc3CN2C(=O)c2cc(Cl)c(O)cc2O)c1`, the results for the negative logarithm of the IC50 (pIC50) in the assay with MDA-MB-231 and in the assay on A549 were 5.75 and 6.02, respectively.
As to `O=C(NCc1ccc(Cl)cc1Cl)[C@H]1Cc2ccccc2CN1C(=O)c1cc(Cl)c(O)cc1O`, the pIC50 in the assay with MDA-MB-231 was 6.02; in the assay on A549, 6.19.
Taken in the same sequence, the figures for `N#Cc1cccc(CNC(=O)[C@H]2Cc3ccccc3CN2C(=O)c2cc(Cl)c(O)cc2O)c1` were 6.19 and 6.30.
In the case of `O=C(NCc1cccc2ccccc12)[C@H]1Cc2ccccc2CN1C(=O)c1cc(Cl)c(O)cc1O`, the pIC50 was 5.62 with MDA-MB-231 and 5.56 with A549.
As for `O=C(NCc1ccc(OC(F)(F)F)cc1)[C@H]1Cc2ccccc2CN1C(=O)c1cc(Cl)c(O)cc1O`, the pIC50 in the assay with MDA-MB-231 is 5.65; in the assay with A549, 5.67.
Taken in the same sequence, the figures for `COc1ccc(CNC(=O)[C@H]2Cc3ccccc3CN2C(=O)c2cc(Cl)c(O)cc2O)cc1` were 6.05 and 5.97.
As to `O=C(NCc1ccccc1Cl)[C@H]1Cc2ccccc2CN1C(=O)c1cc(Cl)c(O)cc1O`, the pIC50 in the assay on MDA-MB-231 was 5.77; in the assay on A549, 5.84.
In the case of `O=C(NCc1ccccc1)[C@H]1Cc2ccccc2CN1C(=O)c1cc(Cl)c(O)cc1O`, the pIC50 in the assay on MDA-MB-231 is 5.95; in the assay on A549 it was 5.78.
`O=C(NCc1ccc([N+](=O)[O-])cc1)[C@H]1Cc2ccccc2CN1C(=O)c1cc(Cl)c(O)cc1O`: the pIC50 in the assay with MDA-MB-231 was 6.40; in the assay with A549, 6.27.
`CS(=O)(=O)c1cccc(CNC(=O)[C@H]2Cc3ccccc3CN2C(=O)c2cc(Cl)c(O)cc2O)c1`: the pIC50 was 5.41 with MDA-MB-231 and below 5.00 in the assay on A549.
Consider `N#Cc1ccc(CNC(=O)[C@H]2Cc3ccccc3CN2C(=O)c2cc(Cl)c(O)cc2O)cc1`, for which the negative logarithm of the IC50 (pIC50) with MDA-MB-231 and with A549 was 6.46 throughout.
Regarding `O=C(NCc1cccc(Cl)c1Cl)[C@H]1Cc2ccccc2CN1C(=O)c1cc(Cl)c(O)cc1O`, the figures for the pIC50 in the assay with MDA-MB-231 and in the assay on A549 were 5.68 and 5.95, respectively.
As for `NS(=O)(=O)c1ccc(CNC(=O)[C@H]2Cc3ccccc3CN2C(=O)c2cc(Cl)c(O)cc2O)cc1`, the pIC50 with MDA-MB-231 and in the assay on A549 was below 5.00 each time.
For `Cc1ccc(CNC(=O)[C@H]2Cc3ccccc3CN2C(=O)c2cc(Cl)c(O)cc2O)cc1`, the pIC50 is 6.22 in the assay with MDA-MB-231 and 6.28 in the assay on A549.
For `CN(C)c1ccc(CNC(=O)[C@H]2Cc3ccccc3CN2C(=O)c2cc(Cl)c(O)cc2O)cc1`, in that order: 6.40 and 6.35.
Consider `O=C(NCc1ccc2c(c1)OCO2)[C@H]1Cc2ccccc2CN1C(=O)c1cc(Cl)c(O)cc1O`, for which the negative logarithm of the IC50 (pIC50) with MDA-MB-231 was 6.15; in the assay with A549, 6.19.
